Usually Ki stands for a dissociation constant, usually derived from enzyme kinetics or from competition with a known ligand. Low readings indicate higher affinity, high ones lower affinity.

32 molecules from ChEMBL document CHEMBL1128282 (J Med Chem, 1995) can be followed below.

Active and inactive are the calls of the source. No cut-off for these calls is given here.

The target in assay [1] is T1, Melatonin receptor (Gallus gallus, UniProt P49288+P51050+P49285). The assay is described as follows: Binding affinity in chicken brain membranes by using [2-125I]melatonin in a competition radioligand binding assay. The assay is classed as cell membranes, Membrane.
The species named for assay [2] is Xenopus laevis. The assay is described as follows: Pigment aggregation response in Xenopus laevis Melanophores at 10e-5 M of concentration; Antagonist. The assay is classed as functional. Particulars: filed as antagonist.
For assay [3], the target named is T1, Melatonin receptor. Put plainly: Binding affinity in chicken brain membranes by using [2-125I]melatonin in a competition radioligand binding assay. The assay is classed as cell membranes, Membrane.
The species named for assay [4] is Xenopus laevis. The assay is described as follows: Pigment aggregation response in Xenopus laevis Melanophores at 10e-6 M of concentration; Agonist. The assay is classed as functional. The following applies: filed as agonist.
Assay [5] is filed under the species Xenopus laevis. Put plainly: Pigment aggregation response in Xenopus laevis Melanophores at 10e-7 M of concentration; Agonist. The assay is classed as functional. The following applies: filed as agonist.
The species entered for assay [6] is Xenopus laevis. Put plainly: Pigment aggregation response in Xenopus laevis Melanophores; Antagonist. Particulars: filed as antagonist. The assay is classed as functional.
Assay [7] is filed under the species Xenopus laevis. Put plainly: Pigment aggregation response in Xenopus laevis Melanophores at 10e-5 M of concentration; No agonist response. The assay is classed as functional.
The species entered for assay [8] is Xenopus laevis. Put plainly: Pigment aggregation response in Xenopus laevis Melanophores at 10e-8 M of concentration; Agonist response. The assay is classed as functional. The following applies: filed as agonist.
For assay [9], the species on record is Xenopus laevis. Put plainly: Pigment aggregation response in Xenopus laevis Melanophores at 10e-5 M of concentration; No Agonist/antagonist response. The assay is classed as functional.
The species named for assay [10] is Xenopus laevis. The assay is described as follows: Pigment aggregation response in Xenopus laevis Melanophores at 10e-5 M of concentration; Agonist. The assay is classed as functional. Particulars: filed as agonist.
Assay [11] is filed under the species Xenopus laevis. Put plainly: Pigment aggregation response in Xenopus laevis Melanophores at 10e-5 M of concentration; No Agonist response. The assay is classed as functional.

On to `COCC(CNC(=O)C1CCC1)c1c(-c2ccccc2)n(C)c2ccccc12` (stereo not given), for which, on Melatonin receptor [1], the Ki amounted to 659 nM. Also, the Response result in the assay filed under Xenopus laevis [2] is “Antagonist”. On Melatonin receptor [3], `COCC(CNC(C)=O)c1c(-c2ccccc2)n(C)c2ccccc12` (stereo not given) registered a Ki of 350 nM. Moreover, the Response result in the assay filed under Xenopus laevis [2] was “Antagonist”.

The molecule `COc1ccc2[nH]c(-c3ccccc3)c(CCNC(=O)C3CCCCC3)c2c1` yielded a Ki at Melatonin receptor [1] of 216 nM. The Response result in the assay listed under Xenopus laevis [4] was “Agonist”.

`CC(=O)NCC(C)c1c(-c2ccccc2)n(C)c2ccccc12` (stereo not given) showed a Ki on Melatonin receptor [1] of 5.9 nM. Further, the Response entry in the assay listed under Xenopus laevis [5] is “Agonist”. Regarding `[N-]=[N+]=NCC(=O)NCCc1c(-c2ccccc2)[nH]c2ccccc12`, the Ki at Melatonin receptor [1] stood at 410 nM. Further, the Response result in the assay listed under Xenopus laevis [4] was “Agonist”. At Melatonin receptor [1], `O=C(NCCc1c(-c2ccccc2)[nH]c2ccccc12)C1CCC1` displayed a Ki of 565 nM. Further, the Response entry in the assay filed under Xenopus laevis [6] is “Antagonist”.

On Melatonin receptor [1], `COc1ccc2[nH]c(-c3ccccc3)c(CCNC(=O)CCc3ccccc3)c2c1` had a Ki of 263 nM. In addition, in the assay filed under Xenopus laevis [4], the Response entry was “Agonist”.

`COc1ccc2[nH]c(-c3ccccc3)c(CCNC(=O)C3CCCC3)c2c1` had a Ki on Melatonin receptor [1] of 32.8 nM. In the assay filed under Xenopus laevis [4], the Response result is “Agonist”. `CC(Br)C(=O)NCCc1c(-c2ccccc2)[nH]c2ccccc12` (stereo not given): the Ki at Melatonin receptor [1] was determined as 1900 nM. Further, the Response result in the assay listed under Xenopus laevis [7] was “inactive”.

As for `CCC(=O)NCCc1c(-c2ccccc2)[nH]c2ccc(OC)cc12`, on Melatonin receptor [1], the Ki is listed as 0.0466 nM. The Response result in the assay listed under Xenopus laevis [8] was “Agonist”. `CCCC(=O)NCCc1c(-c2ccccc2)[nH]c2ccccc12`: affinity on Melatonin receptor [1] was put at a Ki of 112 nM. In addition, in the assay filed under Xenopus laevis [4], the Response entry is “Agonist”. Consider `O=C(NCCc1c(-c2ccccc2)[nH]c2ccccc12)C(F)(F)F`, for which, at Melatonin receptor [1], the affinity, expressed as Ki, was 148 nM. Further, the Response result in the assay filed under Xenopus laevis [4] was “Agonist”. At Melatonin receptor [1], `CC(=O)NCCc1c(-c2ccccc2)[nH]c2ccccc12` registered a Ki of 100 nM. Moreover, the Response entry in the assay filed under Xenopus laevis [4] was “Agonist”.

`O=C(CBr)NCCc1c(-c2ccccc2)[nH]c2ccccc12` showed an inhibition constant (Ki) on Melatonin receptor [1] of 55 nM. Also, the Response result in the assay listed under Xenopus laevis [4] is “Agonist”.

As to `COc1ccc2[nH]c(-c3ccccc3)c(CCNC(=O)C3CC3)c2c1`, the Ki on Melatonin receptor [1] amounted to 0.3047 nM. As for `CC(=O)NCCc1c(-c2ccccc2)n(C)c2ccccc12`, the Ki on Melatonin receptor [1] was determined as 63 nM. Also, the Response result in the assay listed under Xenopus laevis [4] was “Agonist”. The molecule `COc1ccc2[nH]c(-c3ccccc3)c(CCNC(=O)C(F)(F)F)c2c1` displayed a Ki on Melatonin receptor [1] of 0.019 nM. That is a picomolar value. Regarding `O=C(NCCc1c(-c2ccccc2)[nH]c2ccccc12)C1CC1`, the Ki at Melatonin receptor [1] worked out at 213 nM. Besides, the Response result in the assay filed under Xenopus laevis [6] is “Antagonist”. Take `O=C(NCCc1c(-c2ccccc2)[nH]c2ccccc12)C1CCCCC1`: at Melatonin receptor [1], the inhibition constant Ki was 1550 nM. The Response result in the assay filed under Xenopus laevis [6] is “Antagonist”. The molecule `Cn1c(-c2ccccc2)c(CCNC(=O)C2CCC2)c2ccccc21` registered an inhibition constant Ki on Melatonin receptor [1] of 726 nM. The Response entry in the assay filed under Xenopus laevis [2] was “Antagonist”. `O=C(NCCc1c(-c2ccccc2)[nH]c2ccccc12)C12C[C@H]3C[C@@H](C1)C[C@@H](C2)C3` had an inhibition constant (Ki) on Melatonin receptor [1] of 1100 nM. Also, in the assay listed under Xenopus laevis [9], the Response entry was “inactive”. At Melatonin receptor [1], `CC(CNC(=O)C1CCC1)c1c(-c2ccccc2)n(C)c2ccccc12` (stereo not given) displayed a Ki of 222 nM. Moreover, the Response result in the assay listed under Xenopus laevis [2] was “Antagonist”. In turn, `CCC(=O)NCCc1c(-c2ccccc2)[nH]c2ccccc12` came in with a Ki at Melatonin receptor [1] of 70 nM. The Response entry in the assay filed under Xenopus laevis [4] was “Agonist”. At Melatonin receptor [1], `CCCC(=O)NCCc1c(-c2ccccc2)[nH]c2ccc(OC)cc12` displayed a Ki of 0.0558 nM. That is a picomolar value. Regarding `COc1ccc2[nH]cc(CCNC(C)=O)c2c1`, the Response entry in the assay filed under Xenopus laevis [8] is “Agonist”.

`COc1ccc2[nH]c(-c3ccccc3)c(CCNC(=O)C34C[C@H]5C[C@@H](C3)C[C@@H](C4)C5)c2c1` showed a Ki at Melatonin receptor [1] of 1100 nM. In addition, the Response entry in the assay listed under Xenopus laevis [4] is “Agonist”. `CCn1c(-c2ccccc2)c(CCNC(C)=O)c2ccccc21` gave a Ki at Melatonin receptor [1] of 154 nM. Moreover, the Response result in the assay listed under Xenopus laevis [10] was “Agonist”. As to `COc1ccc2[nH]c(-c3ccccc3)c(CCNC(C)=O)c2c1`, the Ki on Melatonin receptor [1] came out at 0.0596 nM. For the same molecule, the Response result in the assay listed under Xenopus laevis [8] is “Agonist”. In the case of `O=C(NCCc1c(-c2ccccc2)[nH]c2ccccc12)C1CCCC1`, the inhibition constant Ki on Melatonin receptor [1] is reported as 633 nM. Moreover, the Response entry in the assay filed under Xenopus laevis [6] was “Antagonist”.

On Melatonin receptor [1], `O=C(NCCc1c(-c2ccccc2)[nH]c2ccccc12)C(F)(F)C(F)(F)F` yielded an inhibition constant (Ki) of 6500 nM. The Response entry in the assay listed under Xenopus laevis [11] is “inactive”. In turn, `COc1ccc2[nH]c(-c3ccccc3)c(CCNC(=O)C3CCC3)c2c1` yielded a Ki on Melatonin receptor [1] of 2.7 nM. Further, the Response result in the assay filed under Xenopus laevis [4] is “Agonist”. `O=C(CCc1ccccc1)NCCc1c(-c2ccccc2)[nH]c2ccccc12` gave a Ki at Melatonin receptor [1] of 7000 nM. In the assay filed under Xenopus laevis [9], the Response entry was “inactive”.
